This is an account of results in publication PMC10539501 (Nature Communications, 2023).

Starred links: 1 amine or outer side, 2 acyl side, 3 side chain; linkers in the order of their positions; H or OH if unused. Non-standard residues stand in square brackets, D forms with d. Residues, ends and D or L forms follow the SMILES beside them. X1 = CC(C)C[C@H](NC(=S)[C@H](Cc1ccc(O)cc1)N[*:1])C(=O)[*:2]; X9 = O=C([C@@H]1CCCN1C(=S)[C@H](Cc1ccccc1)N[*:1])[*:2]

Series [1] can be described thus: HDX of amide protons by NMR in DMSO-d6:D2O (8:2). As to conditions: HDX by NMR, 20% D2O in DMSO-d6.
Protocol: (§1) As hydrogen bonding and solvation of NH groups play an important role in the permeability of macrocycles, we determined the solvent accessibility of individual amide protons in 10 and 10a–10f by hydrogen-deuterium exchange (HDX) through NMR spectroscopy (Figs. 2a–c).
(§2) Spectra were recorded on a Bruker AV 500 MHz spectrometer at 25 °C.
Series [2] in a line: in vitro. As to conditions: both, human, plasma.
Series [3] is described as follows: in vitro. Format: in vitro ADME, human.
Protocol: (§3) The Caco-2 cell (HTB-37^TM from ATCC, procured from NCCS, Pune) monolayer was washed and pre-incubated at 37 °C and 5% CO2 for 30 min with HBSS-HEPES buffer containing 1% DMSO prior to experimentation. The assay was performed 21 days post-seeding of cells. TEER values were measured before starting and after the completion of the assay. Acceptor and donor well concentrations of the peptides and controls were assessed through LC-MS/MS.
A further series concerns Caco-2 cells. The series can be described thus: in vitro. It is filed as in vitro ADME, human. As to conditions: Caco-2.
The conditions of series [4]: rat, in vivo, po, 10 mg/kg.
Protocol: (§4) All animals were housed individually in the animal facility at Anthem Biosciences Pvt. Ltd and were acclimatized for 3 days. All animals were fasted overnight before dosing, whereas access to water was provided ad libitum. Peptides were administered orally and via s.c. route and blood samples were collected at different time points through a jugular vein catheter.
The target in series [5] is T1, pepsin (Sus scrofa, UniProt P00791). Nature of the series: in vitro. As to conditions: simulated gastric fluid, pH 1.2.
T1 sequence (P00791 60-385): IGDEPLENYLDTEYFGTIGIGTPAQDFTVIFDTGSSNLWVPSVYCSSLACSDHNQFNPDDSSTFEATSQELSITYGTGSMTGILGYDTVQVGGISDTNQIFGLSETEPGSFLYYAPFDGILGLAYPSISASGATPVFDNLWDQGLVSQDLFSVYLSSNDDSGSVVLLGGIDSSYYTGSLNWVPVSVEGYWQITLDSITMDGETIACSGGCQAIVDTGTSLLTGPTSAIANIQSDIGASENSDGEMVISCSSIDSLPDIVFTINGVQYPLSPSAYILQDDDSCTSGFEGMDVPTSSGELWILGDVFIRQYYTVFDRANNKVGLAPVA
Protocol: (§5) A stability assessment of the peptides was done in simulated gastric (SGF) and intestinal (SIF) fluids and human liver microsomes. The degradation kinetics of the aliquoted samples at desired time points were analyzed through RP-HPLC.
The nature of series [6]: Retention in hydrophobic C18 column by HPLC. As to conditions: Supplementary Fig 3d, logD7.4 vs tR.
Series [7] can be described thus: Octanol-water distribution coefficient (logD7.4). The conditions noted are these: octanol-water, pH 7.4; value plotted against PAMPA (Supplementary Fig 12).
The nature of a further series: physchem. The conditions noted are these: pH 7.4.
The nature of series [8]: in vitro. The conditions noted are these: both, human, plasma. This is another data set of the same source.
Series [9] in a line: PAMPA passive permeability.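 Note: passive permeability across an artificial membrane in 96-well pre-coated PAMPA plates, which lack transporters and efflux systems.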 Format: in vitro ADME.
Protocol: Encouraged by this, the passive permeability of the analogs was evaluated using an artificial membrane (PAMPA), which measures permeability of compounds in the absence of transporters and efflux systems[32].
96-well BD Corning® pre-coated PAMPA plates were used following the supplier’s protocol, details in Supplementary Information.
For series [10], the target named is T1, pepsin. As to conditions: pH 1.2.
Protocol: as §5
Series [11] in a line: in vivo. As to conditions: male, Wistar, rat.
Protocol: as §4
Series [12] in a line: in vitro. As to conditions: pig, simulated intestinal fluid.
Protocol: We next assessed the stability of the macrocyclic peptides in Simulated Intestinal Fluid (SIF)[42], comprising of pancreatin, which is a mixture of several proteases produced by the exocrine cells of the porcine pancreas.
as §5
The format of series [13] is physicochemical.
Description: Since reduced solvation of S also contributes to the lipophilicity of the thioamidated peptides, we sought to estimate the global desolvation of the macrocyclic peptides, which is affected by solvation of both N(H) and C(S). […] Thus, we evaluated the desolvation potential of the cyclic peptides by determining the distribution coefficients in heptane-ethylene glycol (logDh/e), a solvent system that provides an experimental estimate of desolvation or hydrogen bond potential[38].
Series [14] can be described thus: in vitro. The conditions noted are these: human, microsomes.
Protocol: as §5
Series [15] in a line: HDX of amide protons by NMR in CDCl3:CD3OD (8:2).
Protocol: as §1, §2
The format of series [16] is physicochemical. The source holds these as a separate data set.
The next series has as its target T2, SSTR2 (Homo sapiens, UniProt P30874).
T2 construct: expressed in transfected cells; host or cells: HEK-293T (CRL-3216)
The series can be described thus: GloSensor assay, inhibition of forskolin-induced cAMP production. Format: cell-based. As to conditions: read-out: IC50 sstr2.

The target of the next series is T3, SSTR5 (Homo sapiens, UniProt P35346).
T3 construct: expressed in transfected cells; host or cells: HEK-293T (CRL-3216)
T3 sequence (P35346 whole entry): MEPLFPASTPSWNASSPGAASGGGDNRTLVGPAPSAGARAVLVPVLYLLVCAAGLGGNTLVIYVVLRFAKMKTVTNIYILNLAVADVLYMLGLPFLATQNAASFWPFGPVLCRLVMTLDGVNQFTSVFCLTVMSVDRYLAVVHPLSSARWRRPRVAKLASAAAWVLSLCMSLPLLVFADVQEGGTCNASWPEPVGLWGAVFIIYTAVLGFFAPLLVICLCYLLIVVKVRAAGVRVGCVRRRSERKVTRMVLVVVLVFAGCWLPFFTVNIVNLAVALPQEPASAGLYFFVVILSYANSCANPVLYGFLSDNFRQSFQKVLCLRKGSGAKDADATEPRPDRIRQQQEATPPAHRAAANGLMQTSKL
The series is described as above. Format: cell-based. On the procedure: HEK-293T cells (CRL-3216 from ATCC, procured from NCCS, Pune) were co-transfected with human somatostatin receptor subtypes 2 & 5, plasmid cDNA, and cAMP biosensor (pGloSensorTM-22F plasmid; Promega Corp.) using PEImax. Ligand incubation was followed by the addition and incubation of forskolin (FSK) to the plate. Dose-dependent inhibition of forskolin-induced cAMP production by the peptide ligands was measured using a luminescence plate reader. An elaborate description of the assay setup has been provided in Supplementary Information.

Series [17] in a line: in vivo. As to conditions: male, rat, sc.
Protocol: Subsequently, we selected 13a, 13b, 13d, and 13e for assessing their plasma exposure post single dose subcutaneous injection into male Sprague Dawley rats.
as §4
Another series in a line: SIF. The conditions noted are these: up to 72 hours.
[18] abbreviates: 20% CD3OD in CDCl3, % remaining after 24 hours.
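Throughout, for Papp A-B avg (second block): Caco-2 monolayers used 21 days after seeding in HBSS-HEPES buffer with 1% DMSO, donor and acceptor levels quantified by LC-MS/MS, TEER checked before and after.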
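Throughout, for Papp A-B set 1 (second block): Caco-2 monolayers used 21 days after seeding in HBSS-HEPES buffer with 1% DMSO, donor and acceptor levels quantified by LC-MS/MS, TEER checked before and after.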
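Throughout, for Papp A-B set 2 (second block): Caco-2 monolayers used 21 days after seeding in HBSS-HEPES buffer with 1% DMSO, donor and acceptor levels quantified by LC-MS/MS, TEER checked before and after.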
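Throughout, for Papp B-A avg (second block): Caco-2 monolayers used 21 days after seeding in HBSS-HEPES buffer with 1% DMSO, donor and acceptor levels quantified by LC-MS/MS, TEER checked before and after.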

T2 sequence (P30874 whole entry): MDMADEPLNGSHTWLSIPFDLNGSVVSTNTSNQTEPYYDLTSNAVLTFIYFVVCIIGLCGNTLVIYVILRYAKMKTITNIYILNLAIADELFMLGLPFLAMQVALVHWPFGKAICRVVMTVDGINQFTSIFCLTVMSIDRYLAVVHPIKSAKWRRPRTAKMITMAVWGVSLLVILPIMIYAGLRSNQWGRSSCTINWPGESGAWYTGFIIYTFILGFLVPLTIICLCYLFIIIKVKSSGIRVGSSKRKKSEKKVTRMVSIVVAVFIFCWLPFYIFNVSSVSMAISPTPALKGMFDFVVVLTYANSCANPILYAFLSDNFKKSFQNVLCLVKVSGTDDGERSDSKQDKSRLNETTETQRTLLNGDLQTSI
Protocol for Caco-2 cells: as §3
Protocol for human liver microsomes: as §5

For `CC(C)C[C@@H]1NC(=O)[C@@H](CC(C)C)NC(=O)[C@H](CC(C)C)NC(=S)[C@H](Cc2ccc(O)cc2)NC(=O)[C@H]2CCCN2C(=O)[C@H](CC(C)C)NC1=O` [10e] (cyclo(LL[dP][X1][dL])), in series [1], the “Half-life of D-Leu1 amide proton (HDX)” value turned out to be 0.767 h, the “Half-life of Leu2 amide proton (HDX)” value is 0.6 h, the “Half-life of Leu3 amide proton (HDX)” value came out at 3.18 h and the “Half-life of Leu6 amide proton (HDX)” value was 10.8 h. The “Half-life of Tyr5 amide proton (HDX)” value in series [1] amounted to 0.583 h. Further, the fraction unbound in “in vitro [2]” worked out at 0.01. Moreover, in the series with plasma proteins, the “Protein binding set1” value is recorded as 100%, the “Protein binding set2” value worked out at 95% and the “Protein binding set3” value is given as 100%. For the same compound, in “in vitro [3]” (Caco-2, Papp A-B + Elacridar avg), the Papp A→B amounted to 6.1 ×10⁻⁶ cm/s. In the series “in vitro [3]” (Caco-2, Papp A-B avg), the Papp A→B came out at 2.01 ×10⁻⁶ cm/s. For the same compound, the Papp B→A in “in vitro [3]” (Caco-2, Papp B-A + Elacridar avg) stood at 9.5 ×10⁻⁶ cm/s. Besides, in “in vitro [3]” (Caco-2, Papp B-A avg), the Papp B→A stood at 37.6 ×10⁻⁶ cm/s. Also, in the series on Caco-2 cells, the “Papp A-B avg (second block)” value was determined as 2.01 ×10⁻⁶ cm/s, the “Papp A-B set 1 (second block)” value was 2.06 ×10⁻⁶ cm/s, the “Papp A-B set 2 (second block)” value was found to be 1.96 ×10⁻⁶ cm/s and the “Papp B-A avg (second block)” value was 37.6 ×10⁻⁶ cm/s. Moreover, in the series with Caco-2 cells, the “Papp B-A set 1 (second block)” value came to 38.6 ×10⁻⁶ cm/s and the “Papp B-A set 2 (second block)” value was found to be 36.7 ×10⁻⁶ cm/s. Moreover, in series [4], the AUClast p.o was 359.5 ng·h/mL and the “time over which the peptide is detectable in plasma” value is not below 8 h. On pepsin [5], this compound displayed a half-life of 3.83 h, a fraction remaining at 5 min of 82%, a share remaining at 10 min of 78% and an amount remaining at 20 min of 73%. On pepsin [5], this compound gave an amount remaining at 0.5 h of 66%, an amount remaining at 1 h of 61%, a share remaining at 2 h of 58% and a share remaining at 4 h of 49%. In addition, at pepsin [5], the amount remaining at 8 h was 41%, the share remaining at 12 h is 35% and the share remaining at 24 h is 24%. For the same compound, the tR in series [6] is given as 13.5 min. Moreover, in series [7], the logD7.4 is listed as 1.65. The same compound returned a logD in the series “physchem” of 1.45. In the series “in vitro [8]”, this compound had a half-life of 26 h, an amount remaining at 1 h of 90%, a share remaining at 3 h of 82% and an amount remaining at 5 h of 84%. Further, in the series “in vitro [8]”, the fraction remaining at 7 h was 76%, the amount remaining at 9 h was 67%, the share remaining at 12 h was found to be 61% and the fraction remaining at 24 h turned out to be 50%. Also, in “in vitro [8]”, the amount remaining at 36 h was 43%, the share remaining at 48 h is 32%, the amount remaining at 60 h stood at 25% and the share remaining at 72 h was found to be 12%. For the same compound, in series [9], the “Pe Avg” value is 7.4 ×10⁻⁶ cm/s, the “Pe set1” value is 7.43 ×10⁻⁶ cm/s, the “Pe set2” value was found to be 6.36 ×10⁻⁶ cm/s and the “Pe set3” value is 8.29 ×10⁻⁶ cm/s. For the same compound, the Papp in [9] (Pe Avg) was 7.4 ×10⁻⁶ cm/s. The “Half lives (SGF) set1” value on pepsin [10] is reported as 259 min. In “in vivo [11]” (iv), this compound gave an AUC(0-t) of 2280 ng·h/mL, a Cmax of 2660 ng/mL, an MRT of 1.5 h and a Vd of 0.7 L/kg. Moreover, the clearance in the series “in vivo [11]” (iv) was 7.5 mL/min/kg. Also, the bioavailability in “in vivo [11]” (po) is 1.6%. For the same compound, in “in vivo [11]” (po, 10 mg/kg), the AUC(0-t) stood at 360 ng·h/mL, the concentration peaked (Cmax) at 47.2 ng/mL, the MRT worked out at 5.9 h and the level at 3 h was 32.6 ng/mL. Further, the Half lives in the series on human liver microsomes amounted to 24.8. In the series “in vitro [12]”, this compound had a half-life of 4.02 h, an amount remaining at 10 min of 76.6%, a share remaining at 0.5 h of 68.3% and a fraction remaining at 1 h of 62.8%. Moreover, in the series “in vitro [12]”, the share remaining at 2 h was 58.3%, the amount remaining at 4 h was 49.7%, the fraction remaining at 8 h was 40.9% and the amount remaining at 12 h is 27.5%. Moreover, in “in vitro [12]”, the share remaining at 24 h is 19.9%. The compound further showed a logD heptane ethylene glycol in series [13] of 0.94. In addition, in “in vitro [14]”, the microsomal CLint came to 56.5 µL/min/mg, the amount remaining at 5 min was determined as 97%, the amount remaining at 10 min came out at 70% and the fraction remaining at 20 min amounted to 55%. In “in vitro [14]”, this compound displayed a share remaining at 0.5 h of 47%, an amount remaining at 0.75 h of 37% and a share remaining at 1 h of 27%. In series [15] (20% CD3OD in CDCl3), the “Half-life of D-Leu1 amide proton (HDX)” value worked out at 0.167 h, the “Half-life of Leu2 amide proton (HDX)” value is 2 min, the “Half-life of Leu3 amide proton (HDX)” value was more than 24 h and the “Half-life of Leu6 amide proton (HDX)” value is more than 24 h. For the same compound, in series [15] (20% CD3OD in CDCl3), the “Half-life of Tyr5 amide proton (HDX)” value was determined as 3.13 h. Besides, in [15] (setting [18]), the “% intact NH, Leu3” value is reported as 66% and the “% intact NH, Leu6” value is 70%. Besides, in series [16], the “% solubility” value turned out to be 14%.
In the case of `C[C@@H](O)[C@@H]1NC(=O)[C@H](CCCCN)NC(=O)[C@@H](Cc2c[nH]c3ccccc23)NC(=O)[C@H](Cc2ccccc2)NC(=O)[C@@H]2CCCN2C(=S)[C@H](Cc2ccccc2)NC1=O` [13d] (cyclo(F[dW]KT[X9])), the “t1/2 in human blood plasma” value was 42 h. Besides, in the series “in vitro [2]”, the fraction unbound is 0.11. Moreover, the logD in “physchem” is -0.84. The same compound showed a half-life in the series “in vitro [8]” of 42 h. Moreover, the IC50 on SSTR2 was 20.3 ± 11.9 nM. For the same compound, in [9] (Pe), the Papp was 2.29 ×10⁻⁶ cm/s. The compound also yielded an IC50 on SSTR5 of more than 10000 nM. The same compound registered a logD heptane ethylene glycol in series [13] of -0.94. In the series “in vivo [17]” (Sprague Dawley), this compound gave a level at 0.5 h of 92 ng/mL and a level at 1 h of 77 ng/mL. The compound also showed a half-life in “in vivo [17]” (Sprague-Dawley) of 1.1 ± 0.4 h.
As for cyclo(-D-Trp^1-Lys-Thr-Phe-Pro-Phe^6-), the cleaved bond result in “SIF” is on record as “Lys2-Thr3, major, 1 hour”.
Turning to cyclo(D-Trp^1-Lys'-Thr-Phe-Pro-Phe^6), in the series “SIF”, the not cleaved result is on record as “prevented the degradation of the macrocycle over 72 h”.
As for cyclo(D-Trp^1-Lys-Thr-Phe-Pro-Phe^6), the not cleaved entry in the series “SIF” is given as “prevented the degradation of the macrocycle over 72 h”.
